Experimental data as given in ChEMBL document CHEMBL1201862, “PubChem BioAssay data set” (2004).
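Compound exposure: 48 hours, 5 concentrations, 96-well plates. Abbreviation: GI50, concentration required for 50% inhibition of growth.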 Active and inactive are the calls of the source. Cut-off read from the data, not from the text of the source: active = GI50 up to about 1.1 µM and inactive = higher.

Columns and labels:
Test in all cases: NCI-60 cell line screen, 48 h
SK-MEL-2 = system: SK-MEL-2
CCRF-CEM = system: CCRF-CEM
NCI/ADR-RES = system: NCI/ADR-RES
KM12 = system: KM12
T47D = system: T47D
DU-145 = system: DU-145
A549 = system: A549
CAKI-1 = system: CAKI-1
SF-539 = system: SF-539
Hs-578T = system: Hs-578T
TK-10 = system: TK-10
SK-MEL-5 = system: SK-MEL-5
RPMI-8226 = system: RPMI-8226
NCI-H460 = system: NCI-H460
SK-MEL-28 = system: SK-MEL-28
OVCAR-5 = system: OVCAR-5
COLO 205 = system: COLO 205
OVCAR-3 = system: OVCAR-3
UACC-257 = system: UACC-257
UO-31 = system: UO-31

Measured: GI50

Cn1c(=O)c2c(nc(C(=N)SCC(=O)O)n2C)n(C)c1=O
inactive: SK-MEL-2 39.2 µM | CCRF-CEM 5.57 µM | NCI/ADR-RES 33.3 µM | KM12 34.5 µM | T47D 33.2 µM | DU-145 61.2 µM | A549 39.5 µM | CAKI-1 26 µM | SF-539 32.8 µM | Hs-578T 97.7 µM | TK-10 40.6 µM | SK-MEL-5 16 µM | RPMI-8226 42.2 µM | NCI-H460 29.6 µM | SK-MEL-28 37.7 µM | OVCAR-5 47.5 µM | COLO 205 31.3 µM | OVCAR-3 43.5 µM | UACC-257 29.1 µM | UO-31 41.8 µM

Nc1nc(N)nc(CCCc2nc(N)nc(N)n2)n1
inactive: SK-MEL-2 > 100 µM | CCRF-CEM > 100 µM | NCI/ADR-RES > 100 µM | KM12 > 100 µM | T47D > 100 µM | DU-145 > 100 µM | A549 > 100 µM | CAKI-1 > 100 µM | SF-539 > 100 µM | Hs-578T > 100 µM | TK-10 > 100 µM | SK-MEL-5 > 100 µM | RPMI-8226 > 100 µM | NCI-H460 > 100 µM | SK-MEL-28 > 100 µM | OVCAR-5 > 100 µM | COLO 205 > 100 µM | OVCAR-3 > 100 µM | UACC-257 > 100 µM | UO-31 > 100 µM

C#CCOC(=O)C(=[N+]=[N-])C(=O)CC(C)C
inactive: SK-MEL-2 > 10 µM | CCRF-CEM > 10 µM | NCI/ADR-RES > 10 µM | KM12 > 10 µM | T47D > 10 µM | DU-145 > 10 µM | A549 > 10 µM | CAKI-1 > 10 µM | SF-539 > 10 µM | Hs-578T > 10 µM | TK-10 > 10 µM | SK-MEL-5 > 10 µM | RPMI-8226 > 10 µM | NCI-H460 > 10 µM | SK-MEL-28 > 10 µM | OVCAR-5 > 10 µM | COLO 205 > 10 µM | OVCAR-3 > 10 µM | UACC-257 > 10 µM | UO-31 > 10 µM

CN(C)c1ccc2c3c(c(=O)oc2c1)CCC3
inactive: SK-MEL-2 > 100 µM | CCRF-CEM 75 µM | NCI/ADR-RES 65.8 µM | KM12 41.7 µM | T47D 36.1 µM | DU-145 80.4 µM | A549 51.3 µM | CAKI-1 43.8 µM | SF-539 > 100 µM | Hs-578T 36.8 µM | TK-10 65.3 µM | SK-MEL-5 36.8 µM | RPMI-8226 37.6 µM | NCI-H460 83.9 µM | SK-MEL-28 > 100 µM | OVCAR-5 > 100 µM | COLO 205 33.1 µM | OVCAR-3 > 100 µM | UACC-257 82.8 µM | UO-31 > 100 µM

Nc1ccc(S(=O)(=O)Nc2nc3ccccc3nc2Nc2ccc(S(N)(=O)=O)cc2)cc1
inactive: SK-MEL-2 19.1 µM | CCRF-CEM 48.8 µM | NCI/ADR-RES 45.9 µM | KM12 33 µM | T47D 40.7 µM | DU-145 44.9 µM | A549 47.1 µM | CAKI-1 68.7 µM | SF-539 31.8 µM | Hs-578T 23 µM | TK-10 44.6 µM | SK-MEL-5 49.8 µM | RPMI-8226 33.7 µM | NCI-H460 > 100 µM | SK-MEL-28 30.2 µM | OVCAR-5 > 100 µM | COLO 205 52.6 µM | OVCAR-3 32.4 µM | UACC-257 46 µM | UO-31 18.2 µM

Clc1ccc(C2=CCN3CC=C(c4ccc(Cl)cc4)C23)cc1
inactive: SK-MEL-2 15.5 µM | CCRF-CEM 12.8 µM | NCI/ADR-RES 12.2 µM | KM12 6.64 µM | T47D 12.7 µM | DU-145 14.7 µM | A549 14.2 µM | CAKI-1 14.3 µM | SF-539 15.9 µM | Hs-578T 13.5 µM | TK-10 14 µM | SK-MEL-5 2.47 µM | RPMI-8226 4.66 µM | NCI-H460 9.98 µM | SK-MEL-28 13.9 µM | OVCAR-5 3.78 µM | COLO 205 2.7 µM | OVCAR-3 12.6 µM | UACC-257 11.8 µM | UO-31 6.81 µM

O=C(CSCC(=O)N/N=C/c1ccccc1)N/N=C\c1ccccc1
inactive: SK-MEL-2 > 100 µM | CCRF-CEM > 100 µM | NCI/ADR-RES > 100 µM | KM12 16.7 µM | T47D 77.6 µM | DU-145 > 100 µM | A549 > 100 µM | CAKI-1 > 100 µM | SF-539 81.3 µM | Hs-578T > 100 µM | TK-10 > 100 µM | SK-MEL-5 > 100 µM | RPMI-8226 38.1 µM | NCI-H460 > 100 µM | SK-MEL-28 > 100 µM | OVCAR-5 > 100 µM | COLO 205 > 100 µM | OVCAR-3 > 100 µM | UACC-257 > 100 µM | UO-31 > 100 µM

Cc1[nH]c2c(c1Cc1ccccc1)C1=NC=C(O)NN1C=N2
inactive: SK-MEL-2 > 100 µM | CCRF-CEM 20.5 µM | NCI/ADR-RES > 100 µM | KM12 > 100 µM | T47D 14.4 µM | DU-145 > 100 µM | A549 > 100 µM | CAKI-1 > 100 µM | SF-539 86.9 µM | Hs-578T 67.5 µM | TK-10 74.1 µM | SK-MEL-5 70 µM | RPMI-8226 51.5 µM | NCI-H460 36.4 µM | SK-MEL-28 > 100 µM | OVCAR-5 > 100 µM | COLO 205 22 µM | OVCAR-3 60.4 µM | UACC-257 > 100 µM | UO-31 > 100 µM

c1ccc(-c2ccc(-c3cc4ccccc4[nH]3)cc2)cc1
inactive: SK-MEL-2 > 100 µM | CCRF-CEM 87.7 µM | NCI/ADR-RES > 100 µM | KM12 > 100 µM | T47D > 100 µM | DU-145 > 100 µM | A549 > 100 µM | CAKI-1 61.7 µM | SF-539 > 100 µM | Hs-578T > 100 µM | TK-10 > 100 µM | SK-MEL-5 > 100 µM | RPMI-8226 > 100 µM | NCI-H460 > 100 µM | SK-MEL-28 > 100 µM | OVCAR-5 > 100 µM | COLO 205 > 100 µM | OVCAR-3 > 100 µM | UACC-257 > 100 µM | UO-31 > 100 µM

FC(F)(F)C1(C(F)(F)F)C2CCC3(CC(F)(F)C(F)(F)S3)C1C2 (stereo not given)
inactive: SK-MEL-2 22.6 µM | CCRF-CEM 24.5 µM | NCI/ADR-RES > 100 µM | KM12 76.6 µM | T47D > 100 µM | DU-145 73.6 µM | A549 38.9 µM | CAKI-1 98.2 µM | SF-539 > 100 µM | Hs-578T > 100 µM | TK-10 > 100 µM | SK-MEL-5 44.3 µM | RPMI-8226 28.2 µM | NCI-H460 41.3 µM | SK-MEL-28 > 100 µM | OVCAR-5 48.6 µM | COLO 205 31.5 µM | OVCAR-3 19.6 µM | UACC-257 26.1 µM | UO-31 28.8 µM
